Read-outs that look alike come from different tables or passages of the source.
System: M. tuberculosis H37Rv-GFP
Assay: microbe, parasite or virus in culture
Format: cell-based, Mycobacterium tuberculosis
Conditions: Mycobacterium tuberculosis, H37RV, Macrophage
[1] = confirmation, 20 uM, intracellular, read-out: QIM Confirm % Inhibition 20 uM
[2] = primary screen, 20 μM, intracellular, read-out: Primary QIM % Inhibition
[3] = read-out: Primary QIM % Inhibition
[4] = read-out: QIM Confirm % Inhibition 20 uM

SMILES | inhibition at 20 µM [1] [%] | inhibition at 20 µM [2] [%] | inhibition at 20 µM [3] [%] | inhibition at 20 µM [4] [%]
CSc1ccc(/C=N/Nc2nc(-c3ccc(NC(C)=O)cc3)cs2)cc1 [IPK 000 163 67] | 99.5 | 68.1 |  | 
c1cc2c3c(cccc3c1)NC1(CCCCCC1)N2 [IPK 000 141 61] | 50.8 | 4.2 |  | 
O=C(Nc1ccc(Cl)c(Cl)c1)c1ccc(Cn2cc(Br)cn2)cc1 [IPK 000 180 17] | 34.5 | 63.2 |  | 
CCOC(=O)c1sc(NC(=O)CCC2CCCCC2)nc1C [IPK 000 255 46] | 53.1 | 25 |  | 
CCOc1ncccc1C(=O)N/N=C/c1ccc([N+](=O)[O-])o1 [IPK 000 148 65] | 29.1 | 41.2 |  | 
OC1CCCc2c1[nH]c1ccc(Br)cc21 (stereo not shown) [IPK 000 180 76] | 92.1 | 70.6 |  | 
O=C1OCc2cc(NC(=O)C34CC5CC(CC(C5)C3)C4)ccc21 [IPK 000 249 14] | 68.6 | 45 |  | 
Cc1ccc(/C=N/NC(=O)c2ccncc2)o1 [IPK 000 219 26] | 51.4 | 91.1 |  | 
COc1cccc(C(O)c2cccs2)c1 (stereo not shown) [IPK 000 171 27] | 95.2 | 95.2 |  | 
O=[N+]([O-])c1ccc(/C=N/N(CCO)C2=NS(=O)(=O)c3ccccc32)o1 [IPK 000 222 32] | 63.2 | 16.2 |  | 
O=c1[nH]cc(Sc2cccc3cccnc23)c(=O)[nH]1 [IPK 000 149 02] | 19.1 | 23.5 |  | 
NC(=O)c1ccccc1/N=C/c1ccc([N+](=O)[O-])o1 [IPK 000 175 27] | 25.8 | -69.7 |  | 
Cc1ccc(-c2c(CN3CCCCC3)c(N)nc3ccccc23)cc1 [IPK 000 222 00] | 86.2 | 74.4 |  | 
O=C(NCCC1=CCCCC1)C(=O)Nc1cccc(F)c1 [IPK 000 133 46] | 94.4 | 69.6 |  | 
CSc1ccc(/C=N/Nc2nc(-c3ccc(NC(=O)CCC(=O)O)cc3)cs2)cc1 [IPK 000 262 07] | 7.9 | 80.3 |  | 
O=C(CSc1ccc(Nc2ccc(Cl)cc2)nn1)Nc1ccc(Cl)cc1 [IPK 000 200 16] | 76.8 | 73.3 |  | 
O=C(/C=C/c1ccccc1F)c1ccc(Cl)cc1 [IPK 000 172 35] | 59.9 | 0.9 |  | 
Cc1ccc(C)n1-c1ccc(C(=O)O)c(O)c1 [IPK 000 200 47] | 19.1 | 6.3 |  | 
CC1=NN(c2ccc([N+](=O)[O-])cc2)C(=O)/C1=N/Nc1c(Cl)cc([N+](=O)[O-])cc1Cl [IPK 000 179 49] |  |  | 65.7 | 78.5
COc1ccc(/C=N/Nc2nc(-c3ccc(NC(C)=O)cc3)cs2)cc1 [IPK 000 163 52] | 70.7 | 86.2 |  | 
CCOc1cc(/C=N\NC(=O)COc2ccc(C(C)C)cc2)ccc1O [IPK 000 138 40] | 86.4 | 75 |  | 
O=C(COc1ccc(F)cc1)Nc1nccs1 [IPK 000 247 44] | 97.1 | 89.1 |  | 
CC1=NN(C(N)=S)C(=O)/C1=N/Nc1ccc(O)cc1 [IPK 000 171 84] | 13.3 | -79.6 |  | 

SMILES | inhibition at 20 µM [1] [%] | inhibition at 20 µM [2] [%] | inhibition at 20 µM [3] [%] | inhibition at 20 µM [4] [%]
O=C(c1cc([N+](=O)[O-])cc([N+](=O)[O-])c1)N1CCc2ccccc2C1 [IPK 000 046 86] |  |  | 26.6 | 40.8
O=C(N/N=C/c1c(Cl)cccc1Cl)c1ccncc1 [IPK 000 170 33] | 96.3 | 49.5 |  | 
Cc1ccsc1/C=C/c1ccccc1O [IPK 000 179 05] | 16.6 | -31.7 |  | 
Nc1nc2ccccc2c(-c2cccc3ccccc23)c1CN1CC1 [IPK 000 222 04] | 85.8 | 65.4 |  | 
CCOc1ccc(C(=O)/C=C/c2ccccc2F)cc1 [IPK 000 172 34] | 12.5 | -82.4 |  | 
C/C(=C\c1ccc2c(c1)OCO2)[N+](=O)[O-] [IPK 000 240 37] |  |  | 17 | 67.5
Cc1ccc(NC(=O)c2ccc(CSC3=NCCS3)cc2)c(C)c1 [IPK 000 125 15] | 88.7 | 87.1 |  | 
CCC1=NN(C(=O)c2ccncc2)C(O)(C(F)(F)F)C1 (stereo not shown) [IPK 000 134 50] | 101 | 99.7 |  | 
CC/C(=N/Nc1nc(-c2ccc(NC(C)=O)cc2)cs1)c1ccccc1 [IPK 000 163 64] | 74.2 | 74.9 |  | 
O=C(c1ccc([N+](=O)[O-])o1)N1CCCc2ccccc21 [IPK 000 161 32] | 17.8 | -37.9 |  | 
CS(=O)(=O)c1nc(-c2ccc(Br)cc2)n[nH]1 [IPK 000 134 62] | 25.5 | -56.1 |  | 
O=C(c1ccc([N+](=O)[O-])o1)N1CCN(Cc2ccccc2)CC1 [IPK 000 135 28] | 26.6 | 53.3 |  | 
Cc1c(Cl)cccc1/N=C/c1ccc([N+](=O)[O-])o1 [IPK 000 167 54] | 16.5 | 19.5 |  | 
Cc1ccc(CNC(=O)c2ccc(F)cc2)cc1 [IPK 000 205 42] | 69.3 | 71.5 |  | 
Oc1ccccc1/N=C/c1ccc(OCc2ccccc2)cc1 [IPK 000 169 86] | 13 | 0.5 |  | 
CC(C)CCNC(=O)c1cccc(Cl)c1 [IPK 000 210 79] | 28.7 | 77.2 |  | 
CCc1ccc(NC(=O)C23CC4CC(CC(C4)C2)C3)cc1 [IPK 000 228 46] | 37.8 | 22.5 |  | 
CCCCNC(=O)c1ccc2c(c1)OCO2 [IPK 000 208 53] | 23.3 | 71.6 |  | 
COc1cc2ccccc2cc1C(=O)Nc1nccs1 [IPK 000 133 02] | 37.2 | -44.8 |  | 
CCOc1ccc(C(=O)NCCC(C)C)cc1 [IPK 000 210 83] | 48.2 | 70.4 |  | 
CC(NC(=O)c1cc([N+](=O)[O-])cc([N+](=O)[O-])c1)c1ccccc1 (stereo not shown) [IPK 000 046 80] |  |  | 76.9 | 64.6
C/C(Cn1nnc([N+](=O)[O-])n1)=N\Nc1c(Cl)cc(Cl)cc1Cl [IPK 000 150 48] | 16.1 | -96.3 |  | 
CCC(=O)Nc1ccc(-c2csc(N/N=C/c3ccc(SC)cc3)n2)cc1 [IPK 000 163 27] | 17.9 | 69.5 |  | 

SMILES | inhibition at 20 µM [1] [%] | inhibition at 20 µM [2] [%] | inhibition at 20 µM [3] [%] | inhibition at 20 µM [4] [%]
O=[N+]([O-])c1ccc(/C=N/c2ccccc2O)s1 [IPK 000 169 76] | 16.7 | -71.9 |  | 
ON=C(/C=C/c1ccccc1)/C=C/c1ccccc1 [IPK 000 168 10] | 65.6 | 38 |  | 
Cc1ccsc1/C=N/NC(=O)Cc1cc(=O)[nH][nH]1 [IPK 000 219 30] | 93 | 104 |  | 
CCOC(=O)C1=C(COc2ccc(F)cc2)NC(=O)NC1c1ccc2c(c1)OCO2 (stereo not shown) [IPK 000 251 80] | 38.2 | 25.5 |  | 
CCCCS(=O)(=O)Nc1ccc(Cc2ccncc2)cc1 [IPK 000 249 12] | 53.2 | 23.6 |  | 
O=[N+]([O-])c1ccc(CSc2nnnn2C2CCCCC2)cc1 [IPK 000 258 07] | 72.7 | 49.9 |  | 
CCCC(=O)Nc1ccc(-c2csc(N/N=C/c3ccc(SC)cc3)n2)cc1 [IPK 000 163 51] | 50 | 89.4 |  | 
O=C(COc1ccc(-c2ccccc2)cc1)Nc1nc2ccccc2s1 [IPK 000 142 17] |  |  | 84.3 | 82.3
O=C(Nc1cccc(C(F)(F)F)c1)c1cccs1 [IPK 000 202 08] | 67.4 | 65.7 |  | 
O=C(Nc1ccc(Cl)cc1)Nc1ccc(C(F)(F)F)cc1 [IPK 000 146 98] | 26.5 | 55.8 |  | 
CS(=O)(=O)c1nc(-c2ccc(Cl)cc2)n[nH]1 [IPK 000 134 63] | 12.6 | -18.3 |  | 
Cc1ccccc1C(=O)NNC(=O)c1cc([N+](=O)[O-])cc([N+](=O)[O-])c1 [IPK 000 169 30] |  |  | 56.2 | 73.7
O=C(CCc1ccccc1)N1CCN(Cc2ccccc2)CC1 [IPK 000 126 73] | 60.8 | 85.7 |  | 
O=[N+]([O-])c1ccc(/C=N/c2ccc(Cl)c([N+](=O)[O-])c2)o1 [IPK 000 178 24] |  |  | -26.4 | -4.1
COc1ccccc1N1CCN(C(=O)c2ccc([N+](=O)[O-])o2)CC1 [IPK 000 235 12] | 26.9 | -67.9 |  | 
O=C(NNC(=O)c1cc([N+](=O)[O-])cc([N+](=O)[O-])c1)c1ccc(COc2ccc3c(c2)CCC3)cc1 [IPK 000 149 44] |  |  | 57.6 | 47.1
O=C(Nc1ccc(F)cc1)Nc1ccc(C(F)(F)F)cc1 [IPK 000 147 17] | 40.8 | 11.9 |  | 
CCCC(C)c1ccc(OCC(=O)N/N=C/c2ccsc2)cc1 (stereo not shown) [IPK 000 148 11] | 86.6 | 65.4 |  | 
Cc1ccc(NC(=O)c2ccc(CSc3ccccn3)cc2)c(C)c1 [IPK 000 125 22] | 82 | 75.4 |  | 
CCCCNC(=O)c1cc([N+](=O)[O-])cc([N+](=O)[O-])c1 [IPK 000 046 87] |  |  | 74.4 | 56.3
CC(C)CNC(=O)c1cc([N+](=O)[O-])cc([N+](=O)[O-])c1 [IPK 000 046 78] |  |  | 73.3 | 88.9
CCOc1ccc(NN=C(C#N)C#N)cc1 [IPK 000 170 72] |  |  | -29.5 | -21.3
